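A five-concentration, 48-hour dose response in 96-well plates underlies each endpoint, interpolated linearly between surrounding concentrations. At the GI50, growth is halved.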 Active and inactive are the calls of the source. No stated cut-off is given here; in the data, active = GI50 up to about 1.1 µM and inactive = higher.
Legend:
Experiment in all cases: inhibition of tumour cell growth, NCI panel, 48 h
NCI-H226 = tested on: NCI-H226
Malme-3M = tested on: Malme-3M
SR = tested on: SR
SK-MEL-5 = tested on: SK-MEL-5
SK-OV-3 = tested on: SK-OV-3
M14 = tested on: M14
T47D = tested on: T47D
SK-MEL-28 = tested on: SK-MEL-28
UACC-62 = tested on: UACC-62
HCT-116 = tested on: HCT-116
ACHN = tested on: ACHN
SW-620 = tested on: SW-620
UO-31 = tested on: UO-31
HL-60 = tested on: HL-60
LOX IMVI = tested on: LOX IMVI
NCI-H23 = tested on: NCI-H23
MCF7 = tested on: MCF7
A549 = tested on: A549
KM12 = tested on: KM12
CCRF-CEM = tested on: CCRF-CEM
MDA-MB-231 = tested on: MDA-MB-231
UACC-257 = tested on: UACC-257
SF-539 = tested on: SF-539
HCT-15 = tested on: HCT-15
IGROV-1 = tested on: IGROV-1
DU-145 = tested on: DU-145
TK-10 = tested on: TK-10
NCI-H522 = tested on: NCI-H522
SF-295 = tested on: SF-295
OVCAR-3 = tested on: OVCAR-3
OVCAR-5 = tested on: OVCAR-5
COLO 205 = tested on: COLO 205
HOP-62 = tested on: HOP-62
PC-3 = tested on: PC-3
SN12C = tested on: SN12C
SF-268 = tested on: SF-268
CAKI-1 = tested on: CAKI-1
U-251 = tested on: U-251
HCC 2998 = tested on: HCC 2998
786-0 = tested on: 786-0
RPMI-8226 = tested on: RPMI-8226
SNB-75 = tested on: SNB-75
MOLT-4 = tested on: MOLT-4
OVCAR-8 = tested on: OVCAR-8
HT-29 = tested on: HT-29
SNB-19 = tested on: SNB-19
RXF 393 = tested on: RXF 393
EKVX = tested on: EKVX
K562 = tested on: K562
NCI/ADR-RES = tested on: NCI/ADR-RES
NCI-H460 = tested on: NCI-H460
SK-MEL-2 = tested on: SK-MEL-2
MDA-MB-435 = tested on: MDA-MB-435
Hs-578T = tested on: Hs-578T
OVCAR-4 = tested on: OVCAR-4
HOP-92 = tested on: HOP-92
BT-549 = tested on: BT-549

C=CCN1CN(c2ccccc2)C2(CCN(CCCC3(c4ccc(F)cc4)OCCO3)CC2)C1=O
GI50 (NCI-H226): 19.5 µM (inactive)
GI50 (Malme-3M): 16.5 µM (inactive)
GI50 (SR): 12.1 µM (inactive)
GI50 (SK-MEL-5): 15.1 µM (inactive)
GI50 (SK-OV-3): 19.6 µM (inactive)
GI50 (M14): 15.5 µM (inactive)
GI50 (T47D): 11.6 µM (inactive)
GI50 (SK-MEL-28): 16.9 µM (inactive)
GI50 (UACC-62): 18.7 µM (inactive)
GI50 (HCT-116): 14.8 µM (inactive)
GI50 (ACHN): 18.7 µM (inactive)
GI50 (SW-620): 18.7 µM (inactive)
GI50 (UO-31): 9.93 µM (inactive)
GI50 (HL-60): 13.7 µM (inactive)
GI50 (LOX IMVI): 18.5 µM (inactive)
GI50 (NCI-H23): 13.5 µM (inactive)
GI50 (MCF7): 14.7 µM (inactive)
GI50 (A549): 21.2 µM (inactive)
GI50 (KM12): 15.8 µM (inactive)
GI50 (CCRF-CEM): 13.3 µM (inactive)
GI50 (MDA-MB-231): 18.3 µM (inactive)
GI50 (UACC-257): 18.3 µM (inactive)
GI50 (SF-539): 10.9 µM (inactive)
GI50 (HCT-15): 12.5 µM
GI50 (IGROV-1): 19.9 µM (inactive)
GI50 (DU-145): 22.4 µM (inactive)
GI50 (TK-10): 16.9 µM (inactive)
GI50 (NCI-H522): 18.9 µM (inactive)
GI50 (SF-295): 18.5 µM (inactive)
GI50 (OVCAR-3): 14.4 µM (inactive)
GI50 (OVCAR-5): 11.3 µM (inactive)
GI50 (COLO 205): 15.3 µM (inactive)
GI50 (HOP-62): 21.1 µM (inactive)
GI50 (PC-3): 16.2 µM (inactive)
GI50 (SN12C): 17.7 µM (inactive)
GI50 (SF-268): 18.7 µM (inactive)
GI50 (CAKI-1): 26.7 µM (inactive)
GI50 (U-251): 15.3 µM (inactive)
GI50 (HCC 2998): 19.7 µM (inactive)
GI50 (786-0): 17.7 µM (inactive)
GI50 (RPMI-8226): 12.4 µM (inactive)
GI50 (SNB-75): 15.3 µM (inactive)
GI50 (MOLT-4): 11 µM (inactive)
GI50 (OVCAR-8): 16.1 µM (inactive)
GI50 (HT-29): 5.61 µM (inactive)
GI50 (SNB-19): 19.5 µM (inactive)
GI50 (RXF 393): 14.8 µM (inactive)
GI50 (EKVX): 15.1 µM (inactive)
GI50 (K562): 12.8 µM (inactive)
GI50 (NCI/ADR-RES): 14.4 µM (inactive)

C/C(=N\O)c1ccc2ccc3ccccc3c2c1
GI50 (NCI-H226): 26.4 µM (inactive)
GI50 (Malme-3M): 23.1 µM (inactive)
GI50 (SR): 21.8 µM (inactive)
GI50 (SK-MEL-5): 19.2 µM (inactive)
GI50 (SK-OV-3): > 100 µM (inactive)
GI50 (M14): 66.5 µM (inactive)
GI50 (T47D): 56.6 µM (inactive)
GI50 (SK-MEL-28): 44.2 µM (inactive)
GI50 (UACC-62): 18.9 µM (inactive)
GI50 (HCT-116): 90.6 µM (inactive)
GI50 (ACHN): 32.8 µM (inactive)
GI50 (SW-620): 30.6 µM (inactive)
GI50 (UO-31): 35.1 µM (inactive)
GI50 (HL-60): 22.2 µM (inactive)
GI50 (LOX IMVI): 24.5 µM (inactive)
GI50 (NCI-H23): 65.3 µM (inactive)
GI50 (NCI-H460): 42.6 µM (inactive)
GI50 (MCF7): 41.1 µM (inactive)
GI50 (SK-MEL-2): 43 µM (inactive)
GI50 (A549): 31.8 µM (inactive)
GI50 (KM12): 21.5 µM (inactive)
GI50 (CCRF-CEM): 51.3 µM (inactive)
GI50 (MDA-MB-231): 28.1 µM (inactive)
GI50 (UACC-257): 22.9 µM (inactive)
GI50 (SF-539): 17.5 µM (inactive)
GI50 (HCT-15): 28.9 µM
GI50 (IGROV-1): 44 µM (inactive)
GI50 (DU-145): 33.3 µM (inactive)
GI50 (TK-10): 37.9 µM (inactive)
GI50 (NCI-H522): 29.9 µM (inactive)
GI50 (SF-295): 37.3 µM (inactive)
GI50 (OVCAR-3): 34.2 µM (inactive)
GI50 (OVCAR-5): 52.2 µM (inactive)
GI50 (MDA-MB-435): 22.2 µM (inactive)
GI50 (COLO 205): 37.3 µM (inactive)
GI50 (Hs-578T): 27.6 µM (inactive)
GI50 (HOP-62): > 100 µM (inactive)
GI50 (PC-3): 32.3 µM (inactive)
GI50 (SN12C): 30.8 µM (inactive)
GI50 (SF-268): 44.9 µM (inactive)
GI50 (OVCAR-4): 23 µM (inactive)
GI50 (CAKI-1): 51.9 µM (inactive)
GI50 (U-251): 29.8 µM (inactive)
GI50 (786-0): > 100 µM (inactive)
GI50 (RPMI-8226): 34.6 µM (inactive)
GI50 (SNB-75): 25.5 µM (inactive)
GI50 (MOLT-4): 18.5 µM (inactive)
GI50 (OVCAR-8): 21.6 µM (inactive)
GI50 (HT-29): 28.3 µM (inactive)
GI50 (SNB-19): 62.8 µM (inactive)
GI50 (RXF 393): 34.3 µM (inactive)
GI50 (EKVX): 15.3 µM (inactive)
GI50 (K562): 25.5 µM (inactive)
GI50 (NCI/ADR-RES): 31.3 µM (inactive)

Oc1c(C(O)c2ccccn2)ccc2ccccc12 (centres undefined)
GI50 (NCI-H226): 85.3 µM (inactive)
GI50 (SK-MEL-5): 22.7 µM (inactive)
GI50 (M14): > 100 µM (inactive)
GI50 (T47D): > 100 µM (inactive)
GI50 (UACC-62): 14.4 µM (inactive)
GI50 (HCT-116): 32.2 µM (inactive)
GI50 (ACHN): 66.4 µM (inactive)
GI50 (UO-31): 29.6 µM (inactive)
GI50 (HL-60): 15.1 µM (inactive)
GI50 (LOX IMVI): > 100 µM (inactive)
GI50 (NCI-H23): 69.8 µM (inactive)
GI50 (A549): 61.7 µM (inactive)
GI50 (KM12): 54.1 µM (inactive)
GI50 (CCRF-CEM): 17.9 µM (inactive)
GI50 (UACC-257): > 100 µM (inactive)
GI50 (SF-539): 87.3 µM (inactive)
GI50 (HCT-15): 22.1 µM
GI50 (DU-145): > 100 µM (inactive)
GI50 (NCI-H522): 17.4 µM (inactive)
GI50 (SF-295): > 100 µM (inactive)
GI50 (OVCAR-3): 56.8 µM (inactive)
GI50 (Hs-578T): 35.1 µM (inactive)
GI50 (HOP-62): 81.3 µM (inactive)
GI50 (PC-3): 26.9 µM (inactive)
GI50 (SN12C): 48.1 µM (inactive)
GI50 (SF-268): 72.4 µM (inactive)
GI50 (U-251): 52 µM (inactive)
GI50 (HCC 2998): 17.1 µM (inactive)
GI50 (SNB-75): 24.4 µM (inactive)
GI50 (MOLT-4): 19.6 µM (inactive)
GI50 (OVCAR-8): 74.6 µM (inactive)
GI50 (SNB-19): > 100 µM (inactive)
GI50 (RXF 393): 32.9 µM (inactive)
GI50 (EKVX): 53.1 µM (inactive)
GI50 (K562): 26.4 µM (inactive)
GI50 (NCI/ADR-RES): 42.1 µM (inactive)

C(=C\c1cc[n+](CCc2ccccc2)cc1)/c1ccccc1
GI50 (NCI-H226): 13.8 µM (inactive)
GI50 (Malme-3M): 11.2 µM (inactive)
GI50 (SK-MEL-5): 1.28 µM (inactive)
GI50 (SK-OV-3): 18.6 µM (inactive)
GI50 (M14): 7.91 µM (inactive)
GI50 (T47D): 5.58 µM (inactive)
GI50 (SK-MEL-28): 10.6 µM (inactive)
GI50 (UACC-62): 10.7 µM (inactive)
GI50 (HCT-116): 11.3 µM (inactive)
GI50 (ACHN): 26.9 µM (inactive)
GI50 (SW-620): 12.1 µM (inactive)
GI50 (UO-31): > 100 µM (inactive)
GI50 (LOX IMVI): 17.5 µM (inactive)
GI50 (NCI-H23): 12.5 µM (inactive)
GI50 (HOP-92): 24.7 µM (inactive)
GI50 (NCI-H460): 8.69 µM (inactive)
GI50 (MCF7): 9.16 µM (inactive)
GI50 (SK-MEL-2): 17.1 µM (inactive)
GI50 (A549): 5.64 µM (inactive)
GI50 (KM12): 3.98 µM (inactive)
GI50 (CCRF-CEM): 13.4 µM (inactive)
GI50 (MDA-MB-231): 12.6 µM (inactive)
GI50 (UACC-257): 4.25 µM (inactive)
GI50 (SF-539): 20.4 µM (inactive)
GI50 (HCT-15): > 100 µM
GI50 (IGROV-1): 31.7 µM (inactive)
GI50 (DU-145): 27 µM (inactive)
GI50 (TK-10): 21.5 µM (inactive)
GI50 (NCI-H522): 14.7 µM (inactive)
GI50 (SF-295): 24.9 µM (inactive)
GI50 (OVCAR-3): 5.26 µM (inactive)
GI50 (OVCAR-5): 22.9 µM (inactive)
GI50 (MDA-MB-435): 4.98 µM (inactive)
GI50 (COLO 205): 5.73 µM (inactive)
GI50 (Hs-578T): 15.2 µM (inactive)
GI50 (HOP-62): 12.6 µM (inactive)
GI50 (PC-3): 15.2 µM (inactive)
GI50 (SN12C): 4.02 µM (inactive)
GI50 (SF-268): 18.1 µM (inactive)
GI50 (OVCAR-4): 9.04 µM (inactive)
GI50 (CAKI-1): 22.4 µM (inactive)
GI50 (U-251): 4.9 µM (inactive)
GI50 (786-0): 21.8 µM (inactive)
GI50 (RPMI-8226): 5.45 µM (inactive)
GI50 (BT-549): 11.3 µM (inactive)
GI50 (SNB-75): 24 µM (inactive)
GI50 (MOLT-4): 12.9 µM (inactive)
GI50 (OVCAR-8): 3.86 µM (inactive)
GI50 (HT-29): 6.79 µM (inactive)
GI50 (SNB-19): 12.7 µM (inactive)
GI50 (RXF 393): 88.7 µM (inactive)
GI50 (EKVX): 56.9 µM (inactive)
GI50 (K562): 16.8 µM (inactive)
GI50 (NCI/ADR-RES): > 100 µM (inactive)

Source: ChEMBL document CHEMBL1201862, “PubChem BioAssay data set” (2004)
